Patent US20250257053A1, “PESTICIDALLY ACTIVE HETEROCYCLIC DERIVATIVES WITH SULFUR CONTAINING SUBSTITUENTS” (SYNGENTA CROP PROTECTION AG, priority 2021, published 2025)

What was measured:
Format in all cases: in vivo
[1] = test system: Spodoptera littoralis (Egyptian Cotton Leaf Worm); test: Activity against Spodoptera littoralis (Egyptian cotton leaf worm), sprayed cotton leaf discs; conditions: foliar, 72 h, application rate 200 ppm, five L1 larvae, 3 days after infestation, in comparison to untreated samples, read-out: control (at least one of mortality, anti-feedant effect, growth inhibition)
Protocol: Example B7: Activity Against Spodoptera littoralis (Egyptian Cotton Leaf Worm)
Cotton leaf discs were placed onto agar in 24-well microtiter plates and sprayed with aqueous test solutions prepared from 10′000 ppm DMSO stock solutions. After drying the leaf discs were infested with five L1 larvae. The samples were assessed for mortality, anti-feeding effect, and growth inhibition in comparison to untreated samples 3 days after infestation. Control of Spodoptera littoralis by a test sample is given when at least one of the categories mortality, anti-feedant effect, and growth inhibition is higher than the untreated sample.

[2] = test system: Myzus persicae (Green Peach Aphid); test: Activity against Myzus persicae (green peach aphid), feeding/contact activity, sunflower leaf discs; conditions: foliar, 144 h, application rate 200 ppm, aphid population of mixed ages, 6 days after infestation
Protocol: Example B4: Activity Against Myzus persicae (Green Peach Aphid) Feeding/Contact Activity
Sunflower leaf discs were placed onto agar in a 24-well microtiter plate and sprayed with aqueous test solutions prepared from 10′000 ppm DMSO stock solutions. After drying, the leaf discs were infested with an aphid population of mixed ages. The samples were assessed for mortality 6 days after infestation.

[3] = test system: Myzus persicae (Green Peach Aphid); test: Activity against Myzus persicae (green peach aphid), systemic activity, pea seedling roots in test solution; conditions: 144 h, test rate 24 ppm, aphid population of mixed ages, 6 days after placing seedlings into test solutions
Protocol: Example B5: Activity Against Myzus persicae (Green Peach Aphid) Systemic Activity
Roots of pea seedlings infested with an aphid population of mixed ages were placed directly into aqueous test solutions prepared from 10′000 DMSO stock solutions. The samples were assessed for mortality 6 days after placing seedlings into test solutions.

[4] = test system: Diabrotica Balteata (Corn Root Worm); test: Activity against Diabrotica balteata (corn root worm), sprayed maize sprouts on agar; conditions: 96 h, application rate 200 ppm, L2 larvae, 4 days after infestation, in comparison to untreated samples, read-out: effect in at least one of the two categories (mortality or growth inhibition)
Protocol: Example B2: Activity Against Diabrotica Balteata (Corn Root Worm)
Maize sprouts placed onto an agar layer in 24-well microtiter plates were treated with aqueous test solutions prepared from 10′000 ppm DMSO stock solutions by spraying. After drying, the plates were infested with L2 larvae (6 to 10 per well). The samples were assessed for mortality and growth inhibition in comparison to untreated samples 4 days after infestation.

[5] = test system: Euschistus heros (Neotropical Brown Stink Bug); test: Activity against Euschistus heros (neotropical brown stink bug), sprayed soybean leaves on agar; conditions: 120 h, application rate 200 ppm, N2 nymphs, 5 days after infestation, in comparison to untreated samples, read-out: effect in at least one of the two categories (mortality or growth inhibition)
Protocol: Example B3: Activity Against Euschistus heros (Neotropical Brown Stink Bug)
Soybean leaves on agar in 24-well microtiter plates were sprayed with aqueous test solutions prepared from 10′000 ppm DMSO stock solutions. After drying the leaves were infested with N2 nymphs. The samples were assessed for mortality and growth inhibition in comparison to untreated samples 5 days after infestation.

[6] = test system: Chilo suppressalis (Striped Rice Stemborer); test: Activity against Chilo suppressalis (striped rice stemborer), artificial diet in 24-well microtiter plates; conditions: 144 h, application rate 200 ppm, L2 larvae, 6 days after infestation, in comparison to untreated samples, read-out: control (at least one of mortality, anti-feedant effect, growth inhibition)
Protocol: Example B1: Activity Against Chilo suppressalis (Striped Rice Stemborer)
24-well microtiter plates with artificial diet were treated with aqueous test solutions prepared from 10′000 ppm DMSO stock solutions by pipetting. After drying, the plates were infested with L2 larvae (6-8 per well). The samples were assessed for mortality, anti-feeding effect, and growth inhibition in comparison to untreated samples 6 days after infestation. Control of Chilo suppressalis by a test sample is given when at least one of the categories mortality, anti-feedant effect, and growth inhibition is higher than the untreated sample.

[7] = test system: Plutella xylostella (Diamond Back Moth); test: Activity against Plutella xylostella (diamond back moth), artificial diet in 24-well microtiter plates; conditions: 192 h, application rate 200 ppm, eggs, 8 days after infestation, in comparison to untreated samples, read-out: effect in at least one of the two categories (mortality or growth inhibition)
Protocol: Example B6: Activity Against Plutella xylostella (Diamond Back Moth)
24-well microtiter plates with artificial diet were treated with aqueous test solutions prepared from 10′000 ppm DMSO stock solutions by pipetting. After drying, Plutella eggs were pipetted through a plastic stencil onto a gel blotting paper and the plate was closed with it. The samples were assessed for mortality and growth inhibition in comparison to untreated samples 8 days after infestation. The following compounds gave an effect of at least 80% in at least one of the two categories (mortality or growth inhibition) at an application rate of 200 ppm: P2, P3, P4, P5, P7, P9, P10, P11, P13, P14, P15.

CCS(=O)(=O)c1cccnc1-c1coc2cc(C(F)(F)F)ccc2c1=O [P2, 3-(3-ethylsulfonyl-2-pyridyl)-7-(trifluoromethyl)chromen-4-one]
≥ 80%: percent control (mortality, anti-feedant effect or growth inhibition) at 200 ppm [1] | mortality at 200 ppm [2] | mortality at 24 ppm [3] | percent control (mortality or growth inhibition) at 200 ppm [4] | percent control (mortality or growth inhibition) at 200 ppm [5] | percent control (mortality, anti-feedant effect or growth inhibition) at 200 ppm [6] | effect (mortality or growth inhibition) at 200 ppm [7]

CCSc1cc(C2(C#N)CC2)cnc1-c1coc2cc(C(F)(F)F)ccc2c1=O [P3, 1-[5-ethylsulfanyl-6-[4-oxo-7-(trifluoromethyl)chromen-3-yl]-3-pyridyl]cyclopropane-carbonitrile]
≥ 80%: percent control (mortality, anti-feedant effect or growth inhibition) at 200 ppm [1] | mortality at 200 ppm [2] | percent control (mortality or growth inhibition) at 200 ppm [4] | percent control (mortality or growth inhibition) at 200 ppm [5] | effect (mortality or growth inhibition) at 200 ppm [7]

CCS(=O)(=O)c1cc(C2(C#N)CC2)cnc1-c1coc2cc(C(F)(F)F)ccc2c1=O [P4, 1-[5-ethylsulfonyl-6-[4-oxo-7-(trifluoromethyl)chromen-3-yl]-3-pyridyl]cyclopropane-carbonitrile]
≥ 80%: percent control (mortality, anti-feedant effect or growth inhibition) at 200 ppm [1] | mortality at 200 ppm [2] | mortality at 24 ppm [3] | percent control (mortality or growth inhibition) at 200 ppm [4] | percent control (mortality or growth inhibition) at 200 ppm [5] | percent control (mortality, anti-feedant effect or growth inhibition) at 200 ppm [6] | effect (mortality or growth inhibition) at 200 ppm [7]

CCS(=O)(=O)c1cc(C(C)(C)C#N)cnc1-c1coc2cc(C(F)(F)F)ccc2c1=O [P5, 2-[5-ethylsulfonyl-6-[4-oxo-7-(trifluoromethyl)chromen-3-yl]-3-pyridyl]-2-methyl-propane-nitrile]
≥ 80%: percent control (mortality, anti-feedant effect or growth inhibition) at 200 ppm [1] | mortality at 200 ppm [2] | mortality at 24 ppm [3] | percent control (mortality or growth inhibition) at 200 ppm [4] | percent control (mortality or growth inhibition) at 200 ppm [5] | percent control (mortality, anti-feedant effect or growth inhibition) at 200 ppm [6] | effect (mortality or growth inhibition) at 200 ppm [7]

CCS(=O)(=O)c1cc(C2(C#N)CC2)cnc1-c1c(C)oc2cc(C(F)(F)F)ccc2c1=O [P7, 1-[5-ethylsulfonyl-6-[2-methyl-4-oxo-7-(trifluoromethyl)chromen-3-yl]-3-pyridyl] cyclopropane-carbonitrile]
≥ 80%: percent control (mortality, anti-feedant effect or growth inhibition) at 200 ppm [1] | mortality at 200 ppm [2] | mortality at 24 ppm [3] | percent control (mortality or growth inhibition) at 200 ppm [4] | percent control (mortality or growth inhibition) at 200 ppm [5] | percent control (mortality, anti-feedant effect or growth inhibition) at 200 ppm [6] | effect (mortality or growth inhibition) at 200 ppm [7]

CCS(=O)(=O)c1cc(Br)cnc1-c1c(C)oc2cc(C(F)(F)F)ccc2c1=O [P8, 3-(5-bromo-3-ethylsulfonyl-2-pyridyl)-2-methyl-7-(trifluoromethyl) chromen-4-one]
≥ 80%: percent control (mortality, anti-feedant effect or growth inhibition) at 200 ppm [1] | percent control (mortality, anti-feedant effect or growth inhibition) at 200 ppm [6]

CCS(=O)(=O)c1cc(Br)cnc1-c1coc2cc(C(F)(F)F)ccc2c1=O [P9, 3-(5-bromo-3-ethylsulfonyl-2-pyridyl)-7-(trifluoromethyl)-chromen-4-one]
≥ 80%: percent control (mortality, anti-feedant effect or growth inhibition) at 200 ppm [1] | percent control (mortality or growth inhibition) at 200 ppm [4] | percent control (mortality, anti-feedant effect or growth inhibition) at 200 ppm [6] | effect (mortality or growth inhibition) at 200 ppm [7]

CCS(=O)(=O)c1ccc(C2CC2)nc1-c1coc2cc(C(F)(F)F)ccc2c1=O [P10, 3-(6-cyclopropyl-3-ethylsulfonyl-2-pyridyl)-7-(trifluoromethyl) chromen-4-one]
≥ 80%: percent control (mortality, anti-feedant effect or growth inhibition) at 200 ppm [1] | mortality at 200 ppm [2] | percent control (mortality or growth inhibition) at 200 ppm [4] | percent control (mortality, anti-feedant effect or growth inhibition) at 200 ppm [6] | effect (mortality or growth inhibition) at 200 ppm [7]

CCS(=O)(=O)c1cc(C2CC2)cnc1-c1coc2cc(C(F)(F)F)ccc2c1=O [P11, 3-(5-cyclopropyl-3-ethylsulfonyl-2-pyridyl)-7-(trifluoromethyl) chromen-4-one]
≥ 80%: percent control (mortality, anti-feedant effect or growth inhibition) at 200 ppm [1] | mortality at 200 ppm [2] | mortality at 24 ppm [3] | percent control (mortality or growth inhibition) at 200 ppm [4] | percent control (mortality or growth inhibition) at 200 ppm [5] | percent control (mortality, anti-feedant effect or growth inhibition) at 200 ppm [6] | effect (mortality or growth inhibition) at 200 ppm [7]

CCS(=O)(=O)c1cc(C2(C#N)CC2)cnc1-c1coc2cc(OC(F)F)ccc2c1=O [P13, 1-[6-[7-(difluoromethoxy)-4-oxo-chromen-3-yl]-5-ethylsulfonyl-3-pyridyl]-cyclo-propanecarbonitrile]
≥ 80%: percent control (mortality, anti-feedant effect or growth inhibition) at 200 ppm [1] | mortality at 200 ppm [2] | mortality at 24 ppm [3] | percent control (mortality or growth inhibition) at 200 ppm [4] | percent control (mortality or growth inhibition) at 200 ppm [5] | percent control (mortality, anti-feedant effect or growth inhibition) at 200 ppm [6] | effect (mortality or growth inhibition) at 200 ppm [7]

CCS(=O)(=O)c1cc(C2(C#N)CC2)cnc1-c1cn(C)c2cc(C(F)(F)F)ccc2c1=O [P14, 1-[5-ethylsulfonyl-6-[1-methyl-4-oxo-7-(trifluoromethyl)-3-quinolyl]-3-pyridyl]-cyclo-propanecarbonitrile]
≥ 80%: percent control (mortality, anti-feedant effect or growth inhibition) at 200 ppm [1] | mortality at 200 ppm [2] | mortality at 24 ppm [3] | percent control (mortality or growth inhibition) at 200 ppm [4] | percent control (mortality or growth inhibition) at 200 ppm [5] | percent control (mortality, anti-feedant effect or growth inhibition) at 200 ppm [6] | effect (mortality or growth inhibition) at 200 ppm [7]

CCS(=O)(=O)c1cc(C2(C#N)CC2)cnc1-c1coc2cc(OC(F)(F)F)ccc2c1=O [P15, 1-[5-ethylsulfonyl-6-[4-oxo-7-(trifluoromethoxy)chromen-3-yl]-3-pyridyl]-cyclopropane-carbonitrile]
≥ 80%: percent control (mortality, anti-feedant effect or growth inhibition) at 200 ppm [1] | mortality at 200 ppm [2] | percent control (mortality or growth inhibition) at 200 ppm [4] | percent control (mortality or growth inhibition) at 200 ppm [5] | percent control (mortality, anti-feedant effect or growth inhibition) at 200 ppm [6] | effect (mortality or growth inhibition) at 200 ppm [7]

CCS(=O)(=O)c1cc(-c2ccc(F)cc2)cnc1-c1coc2cc(C(F)(F)F)ccc2c1=O [P16, 3-[3-ethylsulfonyl-5-(4-fluorophenyl)-2-pyridyl]-7-(trifluoromethyl)chromen-4-one]
≥ 80%: percent control (mortality, anti-feedant effect or growth inhibition) at 200 ppm [1]
